PMC9098178, “SAR of Novel 3-Arylisoquinolinones: meta-Substitution on the Aryl Ring Dramatically Enhances Antiproliferative Activity through Binding to Microtubules” (Journal of Medicinal Chemistry, 2022)
Where two headings read alike, the source gives them in different places. Values belong to the compound of their own block, whether it stands above or below them.

Experiments:
MCF-7 = test: SRB antiproliferative assay, MCF-7; type: cell-based, human
Protocol: Initially, the human breast cancer cell line MCF-7 was used in a prescreen analysis of the anticancer activity of 3-arylisoquinolinones. The cells were treated with serial concentrations of compounds 2–8 for 96 h prior to the assessment of proliferation using the sulforhodamine B (SRB) assay. For each compound, the concentration required to inhibit cell growth by 50% compared to that of the untreated control cells (IC50) was determined (Table 1).
(§1) All cell lines used in the study were human-derived and purchased from ATCC (Manassas, USA). Breast adenocarcinoma MCF-7 and MDA-MB-231 cell lines were cultured in DMEM. Hepatocellular carcinoma HepG2 and SNU423 cell lines were grown in MEME combined with 1% (v/v) nonessential amino acids and RPMI supplemented with 2 mM glutamine, respectively. Lung adenocarcinoma A549 and colorectal carcinoma HCT116 cells were grown in RPMI (+2 mM glutamine). All previous media were further supplemented with 10% heat-inactivated fetal bovine serum. The immortalized, normal liver THLE-3 cells were grown in BEGM (Lonza, Cat# CC-3170) onto precoated vessels according to ATCC’s instructions. Human umbilical vein endothelial cells (HUVECs) were cultured in EGM-2 (Lonza, Cat# CC-3162). All of the cells were maintained at 37 °C and 5% CO2 in a humidified incubator.
(§2) Screening of the antiproliferative activity of 3-arylisoquinolinones was performed using the SRB assay as previously described.[56] Exponentially growing HepG2, SNU423, MDA-MB-231, MCF-7, A549, HCT116, THLE-3, and HUVECs were seeded in 96-well plates at densities of 3000, 2000, 1500, 2500, 1000, 1000, 4000, and 4000 cells/well, respectively. These densities were experimentally selected so that the DMSO-treated cells (control) were approximately 80–90% confluent at the assay’s endpoint, and their optical density (OD) values fell within the assay’s linear range. After overnight incubation, the cells were treated with a range of concentrations of the respective compounds for 96 h, 24 h followed by 72 h compound-free incubation or 24 h (for HUVECs only). After treatment, cell monolayers were fixed with 10% (w/v) trichloroacetic acid for 1 h at 4 °C, washed, and dried. Then, the cells were exposed to 0.4% (w/v) SRB dye (prepared in 1% (v/v) acetic acid; Botium, Cat# 80100) for 15 min followed by several 1% acetic acid washing and then drying. Finally, the cellular protein-bound SRB was thoroughly dissolved in 10 mM Tris base, and the OD values were read at 510 nm using a plate reader (μQuant Microplate Spectrophotometer, Biotek, U.K.) coupled with Gen5 software (BioTek, U.K.). Compound-induced changes in cell growth were inferred from changes in OD values. Cell growth was calculated using the following formula: cell growth (%) = (ODtest/ODcontrol) × 100.

[1] = test system: panel of 59 cancer cell lines; test: NCI one-dose screen; type: cell-based; details: 10 µM, 48 h, SRB
Protocol: (§3) In light of this substantial change in activity between the meta and para compounds, a more comprehensive analysis of the antiproliferative activity was performed for the meta-/para-3-arylisoquinolinone pairs 2 and 3, 4, and 5, as well as 6. A panel of breast (MDA-MB-231), liver (HepG2, SNU423), lung (A549), and colon (HCT116) cancer cell lines were treated with the five 3-arylisoquinolinone analogs for 96 h followed by the SRB assay. The dose–response curves (including those for MCF-7) are presented in Figure S22, and their relevant IC50 values are listed in Table 1. […] The differential activity between meta- and para-3-arylisoquinolinones was reproduced in the National Cancer Institute (NCI) one-dose screen using a panel of 59 cancer cell lines (Figure S23).
Figure S23. NCI One-Dose Mean graphs for 3-arylisoquinolinones 4, 5 […]
In NCI one-dose screen, the 59 cell lines (classified into 9 groups) were exposed to 4, 5 and 7 at a single dose of 10 µM for 48 h followed by SRB assay. The one-dose data were reported as a mean graph of the growth percentage of treated cells, as relative to the cell number of both the no-drug control and the zero time (before adding the test agent). Values between 0 and 100 indicate growth inhibition, whereas values less than 0 indicate lethality. For instance, a value of 40 means 60% growth inhibition; 0, no growth throughout the experiment; -40, 40% lethality; and - 100, all cells are dead.1
A) One-dose mean graph for 3-arylisoquinolinone 4 (NSC number 795055)

[2] = design: method as in PMID 21127197; details: after compound washout; cited from earlier work
THLE-3 = test: SRB antiproliferative assay, normal liver cell line THLE-3; type: cell-based, human; details: 24 h +drug/72 h –drug treatment, read-out: mean IC50 ± SEM, THLE-3
Text: In the preceding experiments, the cells were continuously exposed to the compounds prior to scoring for the antiproliferative/cytotoxic effects. […] The meta compounds were also examined for the presence of differential antiproliferative activity against cancer cells over the normal liver cell line THLE-3. […] Moreover, the sensitivity of the six cancer cell lines toward compounds 2, 4, and 6 was markedly greater than that of THLE-3 cells.
All cell lines used in the study were human-derived and purchased from ATCC (Manassas, USA). Breast adenocarcinoma MCF-7 and MDA-MB-231 cell lines were cultured in DMEM. Hepatocellular carcinoma HepG2 and SNU423 cell lines were grown in MEME combined with 1% (v/v) nonessential amino acids and RPMI supplemented with 2 mM glutamine, respectively. Lung adenocarcinoma A549 and colorectal carcinoma HCT116 cells were grown in RPMI (+2 mM glutamine). […]
Screening of the antiproliferative activity of 3-arylisoquinolinones was performed using the SRB assay as previously described.[56] […] Finally, the cellular protein-bound SRB was thoroughly dissolved in 10 mM Tris base, and the OD values were read at 510 nm using a plate reader (μQuant Microplate Spectrophotometer, Biotek, U.K.) coupled with Gen5 software (BioTek, U.K.). […] Cell growth was calculated using the following formula: cell growth (%) = (ODtest/ODcontrol) × 100.

SNU423 = test: SRB antiproliferative assay, SNU423; type: cell-based, human
Protocol: as §3, §1
as §2, with “After overnight incubation, the cells were treated with a range of concentrations of the respective compounds for 96 h, 24 h followed by 72 h compound-free incubation or 24 h (for HUVECs only).” left out

HCT116 = test: SRB antiproliferative assay, HCT116; type: cell-based, human
Protocol: as §3, §1, §2

A549 = test: SRB antiproliferative assay, A549; type: cell-based, human
Protocol: as §3, §1, §2

HepG2 cells = test: Clonogenic assay; type: cell-based, human; details: 14 days; for colony formation: 0.5 or 1 μM
Protocol: HepG2 cells were treated with varying concentrations of 2–6 added once and kept for 14 days before counting colonies and calculating surviving fraction (Figure 2).
The ability of potential anticancer agents to prevent unlimited cell division and induce reproductive cell death was assessed using clonogenic assay as previously described.[57] In brief, HepG2 cells were seeded into six-well plates at a density of 1000 single cells/well and incubated for 10–12 h to adhere. The cells were then treated with DMSO (control) or a range of concentrations of 2–6 for 14 days. Afterward, the produced colonies were washed with phosphate-buffered saline (PBS), fixed with 70% ethanol for 20 min, and stained with 0.5% (w/v) methylene blue (prepared in 70% methanol). Following washing with water and drying, colonies (≥50 cells) were manually counted. The colony-forming efficiency (CFE) of cells was calculated by dividing the number of colonies formed by the number of cells seeded for each condition. The surviving fraction was determined by dividing the CFE of the treated cells by CFE of the control cells. A survival curve was generated by plotting the log of drug concentrations versus surviving fraction.

HepG2 = test: SRB antiproliferative assay, HepG2; type: cell-based, human
Protocol: as §3, §1, §2

MDA-MB-231 = test: SRB antiproliferative assay, MDA-MB-231; type: cell-based, human
Protocol: as §3, §1, §2

purified bovine tubulin = test: Cell-free tubulin polymerization assay; type: biochemical; details: 10 μM, compared to DMSO control
Text: Experimentally, the direct interaction of 4 with tubulin was investigated in a cell-free system using a tubulin polymerization assay. […] In control samples, α- and β-tubulin subunits were able to heterodimerize and assemble into microtubules in a time-dependent manner as indicated by increasing absorbance values over time. […] This indicates the incidence of fast polymerization associated with the formation of a denser microtubule mass. […] It is worth mentioning that microtubule dynamics can be potently altered by microtubule-stabilizing or -destabilizing compounds at doses 10- to 100-fold lower than those required for increasing or decreasing the microtubule polymer mass.[31]
The cell-free tubulin polymerization experiment was performed using the Tubulin Polymerization Assay Kit according to the manufacturer’s instructions (Millipore, Cat# 17-10194). The light absorbed by microtubules, which were formed upon tubulin polymerization, is directly proportional to the polymer mass. […] Immediately, the plate was placed in a 37 °C-prewarmed plate reader (BMG LABTECH FLUOstar Omega, Germany) and the absorbance was measured at 1 min intervals for 60 min at a wavelength of 350 nm. The delta absorbance (ΔA) was calculated by subtracting the absorbance values of zero time from those of the subsequent time points and then plotted versus time.

[3] = 96 h treatment, mean ± SEM, read-out: IC50 MCF-7 (prescreen)
[4] = 24 h +drug/72 h –drug treatment, read-out: mean IC50 ± SEM, SNU423
[5] = 96 h treatment, mean ± SEM, read-out: IC50 SNU423
[6] = 24 h +drug/72 h –drug treatment, read-out: mean IC50 ± SEM, MCF-7
[7] = 24 h +drug/72 h –drug treatment, read-out: mean IC50 ± SEM, HCT116
[8] = 96 h treatment, mean ± SEM, read-out: IC50 HCT116
[9] = 24 h +drug/72 h –drug treatment, read-out: mean IC50 ± SEM, A549
[10] = 96 h treatment, mean ± SEM, read-out: IC50 A549
[11] = 24 h +drug/72 h –drug treatment, read-out: mean IC50 ± SEM, HepG2
[12] = 96 h treatment, mean ± SEM, read-out: IC50 HepG2
[13] = 24 h +drug/72 h –drug treatment, read-out: mean IC50 ± SEM, MDA-MB-231
[14] = 96 h treatment, mean ± SEM, read-out: IC50 MDA-MB-231
[15] = Homo sapiens, MCF7, 96 h treatment, mean ± SEM, read-out: IC50 MCF-7 (prescreen)

IC50 (MCF-7; [3]): > 50000 nM
Compound: 7-Fluoro-3-(4-methoxyphenyl)isoquinolin-1(2H)-one [compound 7]
inhibition of growth in NCI one-dose screen [1]: less active

Compound: CN[C@H]1CCc2cc(OC)c(OC)c(OC)c2-c2ccc(OC)c(=O)cc21 [colcemid]
reversibility of mitotic blockade [2]: highly reversible

Compound: COc1cc2c(c(OC)c1OC)-c1ccc(OC)c(=O)cc1[C@@H](NC(C)=O)CC2 [colchicine]
reversibility of mitotic blockade [2]: irreversible

IC50 (SNU423; [4]): 580 ± 40 nM
IC50 (SNU423; [5]): 410 ± 30 nM
IC50 (MCF-7; [6]): 1430 ± 300 nM
IC50 (MCF-7; [3]): 750 ± 130 nM
IC50 (HCT116; [7]): 200 ± 10 nM
IC50 (HCT116; [8]): 220 ± 20 nM
IC50 (A549; [9]): 830 ± 170 nM
IC50 (A549; [10]): 370 ± 10 nM
IC50 (HepG2; [11]): 2330 ± 220 nM
IC50 (HepG2; [12]): 3120 ± 340 nM
IC50 (MDA-MB-231; [13]): 190 ± 40 nM
IC50 (MDA-MB-231; [14]): 170 ± 10 nM
Compound: COc1cccc(-c2cc3cc(F)ccc3c(=O)[nH]2)c1 [compound 2, 6-Fluoro-3-(3-methoxyphenyl)isoquinolin-1(2H)-one]
IC50 (THLE-3): > 25000 nM
colony formation (HepG2 cells): No colonies were apparent

Compound: COc1ccc(-c2cc3cc(F)ccc3c(=O)[nH]2)cc1 [compound 3, 6-Fluoro-3-(4-methoxyphenyl)isoquinolin-1(2H)-one]
IC50 (SNU423; Homo sapiens, SNU-423, 96 h treatment, mean ± SEM, read-out: IC50 SNU423): > 50000 nM
IC50 (MCF-7; [15]): > 50000 nM
IC50 (HCT116; Homo sapiens, HCT-116, 96 h treatment, mean ± SEM, read-out: IC50 HCT116): > 50000 nM
IC50 (A549; Homo sapiens, A549, 96 h treatment, mean ± SEM, read-out: IC50 A549): > 50000 nM
surviving fraction (HepG2 cells; concentrations as high as 20 μM): 0.5
IC50 (HepG2; Homo sapiens, HepG2, 96 h treatment, mean ± SEM, read-out: IC50 HepG2): > 50000 nM
IC50 (MDA-MB-231; Homo sapiens, MDA-MB-231, 96 h treatment, mean ± SEM, read-out: IC50 MDA-MB-231): > 50000 nM

IC50 (SNU423; [4]): 680 ± 90 nM
IC50 (SNU423; [5]): 600 ± 60 nM
IC50 (MCF-7; [6]): 1600 ± 400 nM
IC50 (MCF-7; [3]): 680 ± 130 nM
IC50 (HCT116; [7]): 210 ± 10 nM
IC50 (HCT116; [8]): 190 ± 10 nM
IC50 (A549; [9]): 470 ± 30 nM
IC50 (A549; [10]): 380 ± 20 nM
IC50 (HepG2; [11]): 1400 ± 60 nM
IC50 (HepG2; [12]): 3030 ± 610 nM
IC50 (MDA-MB-231; [13]): 220 ± 20 nM
IC50 (MDA-MB-231; [14]): 210 ± 50 nM
Compound: COc1cccc(-c2cc3ccc(F)cc3c(=O)[nH]2)c1 [compound 6]
IC50 (THLE-3): > 25000 nM
colony formation (HepG2 cells): No colonies were apparent

IC50 (MCF-7; [15]): > 50000 nM
melting point: 294 to 296 °C
Compound: O=c1[nH]c(-c2ccc(F)cc2)cc2ccc(F)cc12 [compound 8]

Compound: COC(=O)Nc1nc2cc(C(=O)c3cccs3)ccc2[nH]1 [nocodazole]
reversibility of mitotic blockade [2]: highly reversible

Compound: CC(=O)O[C@H]1C(=O)[C@@]2(C)[C@H]([C@H](OC(=O)c3ccccc3)[C@]3(O)C[C@H](OC(=O)[C@H](O)[C@@H](NC(=O)c4ccccc4)c4ccccc4)C(C)=C1C3(C)C)[C@]1(OC(C)=O)CO[C@@H]1C[C@@H]2O [paclitaxel, reference compound]
effect on tubulin polymerization (polymerizing control) (purified bovine tubulin): higher absorbance values briefly after the onset of the polymerization process

Compound: CC[C@]1(O)C[C@H]2CN(CCc3c([nH]c4ccccc34)[C@@](C(=O)OC)(c3cc4c(cc3OC)N(C=O)[C@H]3[C@@](O)(C(=O)OC)[C@H](OC(C)=O)[C@]5(CC)C=CCN6CC[C@]43[C@@H]65)C2)C1 [vincristine]
reversibility of mitotic blockade [2]: irreversible
